Data: ChEMBL document CHEMBL4665881, “Pyrroformyl-containing 2,4-diaminopyrimidine derivatives as a new optimization strategy of ALK inhibitors combating mutations” (Bioorg Med Chem, 2020)

What was measured:
A549 = experiment: Antiproliferative activity against human A549 cells assessed as reduction in cell viability incubated for 72 hr by MTT assay; conditions: A549, 72 h
NCI-H2228 = experiment: Antiproliferative activity against human H2228 cells assessed as reduction in cell viability incubated for 72 hrs by MTT assay; assay type: functional, cell-based; conditions: NCI-H2228, 72 h
KARPAS-299 = experiment: Antiproliferative activity against human Karpas299 cells assessed as reduction in cell viability incubated for 72 hrs by MTT assay; conditions: KARPAS-299, 72 h
[1] = target: ALK tyrosine kinase receptor (Homo sapiens, UniProt Q9UM73); experiment: Inhibition of wild-type ALK (unknown origin) incubated for 1 hr
ALK tyrosine kinase receptor (Homo sapiens, UniProt Q9UM73), sequence (Q9UM73 whole entry): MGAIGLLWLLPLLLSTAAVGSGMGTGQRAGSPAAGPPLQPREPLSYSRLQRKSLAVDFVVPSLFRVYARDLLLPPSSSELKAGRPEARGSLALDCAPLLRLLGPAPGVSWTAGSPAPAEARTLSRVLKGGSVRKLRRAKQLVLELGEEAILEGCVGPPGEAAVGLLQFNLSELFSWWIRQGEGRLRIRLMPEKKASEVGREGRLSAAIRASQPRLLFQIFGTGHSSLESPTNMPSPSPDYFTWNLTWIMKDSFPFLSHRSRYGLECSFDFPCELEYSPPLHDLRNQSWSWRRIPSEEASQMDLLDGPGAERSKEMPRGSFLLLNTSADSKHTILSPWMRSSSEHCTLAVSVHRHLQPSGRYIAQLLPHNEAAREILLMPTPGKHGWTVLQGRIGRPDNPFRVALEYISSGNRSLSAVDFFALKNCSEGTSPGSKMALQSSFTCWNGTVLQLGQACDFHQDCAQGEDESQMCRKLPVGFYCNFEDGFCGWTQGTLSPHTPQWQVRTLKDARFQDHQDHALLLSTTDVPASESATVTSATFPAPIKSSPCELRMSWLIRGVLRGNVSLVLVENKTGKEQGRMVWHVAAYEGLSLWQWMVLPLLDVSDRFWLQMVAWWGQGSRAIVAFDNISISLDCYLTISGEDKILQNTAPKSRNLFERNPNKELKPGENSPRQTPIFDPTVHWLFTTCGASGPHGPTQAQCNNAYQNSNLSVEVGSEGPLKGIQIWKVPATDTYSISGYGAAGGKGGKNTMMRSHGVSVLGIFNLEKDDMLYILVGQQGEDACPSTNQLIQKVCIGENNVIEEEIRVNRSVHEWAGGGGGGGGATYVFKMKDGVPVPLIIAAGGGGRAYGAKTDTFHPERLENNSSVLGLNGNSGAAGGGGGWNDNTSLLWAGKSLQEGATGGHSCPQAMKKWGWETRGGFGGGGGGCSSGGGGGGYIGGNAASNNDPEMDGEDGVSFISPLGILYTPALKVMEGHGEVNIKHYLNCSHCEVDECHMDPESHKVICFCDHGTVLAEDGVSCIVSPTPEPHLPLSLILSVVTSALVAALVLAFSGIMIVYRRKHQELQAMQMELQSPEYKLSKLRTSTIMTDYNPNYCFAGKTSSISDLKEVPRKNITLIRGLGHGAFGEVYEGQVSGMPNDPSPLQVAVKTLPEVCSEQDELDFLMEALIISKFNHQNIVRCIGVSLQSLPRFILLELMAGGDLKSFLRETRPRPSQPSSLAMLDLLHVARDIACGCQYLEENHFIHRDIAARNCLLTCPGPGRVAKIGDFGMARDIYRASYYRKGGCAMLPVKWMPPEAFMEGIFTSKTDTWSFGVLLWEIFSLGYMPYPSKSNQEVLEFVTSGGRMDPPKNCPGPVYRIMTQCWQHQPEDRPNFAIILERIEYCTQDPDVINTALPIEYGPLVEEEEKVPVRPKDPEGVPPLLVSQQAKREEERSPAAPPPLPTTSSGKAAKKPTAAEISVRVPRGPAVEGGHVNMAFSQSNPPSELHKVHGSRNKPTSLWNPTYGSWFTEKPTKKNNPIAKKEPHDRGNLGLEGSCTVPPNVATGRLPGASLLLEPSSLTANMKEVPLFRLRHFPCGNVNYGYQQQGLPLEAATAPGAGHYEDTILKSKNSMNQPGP

[2] = target: ALK tyrosine kinase receptor (Homo sapiens, UniProt Q9UM73, L1196M); experiment: Inhibition of ALK L1196M (unknown origin) incubated for 1 hr
ALK tyrosine kinase receptor (Homo sapiens, UniProt Q9UM73, L1196M), sequence (Q9UM73 19-1620 L1196M limits assumed): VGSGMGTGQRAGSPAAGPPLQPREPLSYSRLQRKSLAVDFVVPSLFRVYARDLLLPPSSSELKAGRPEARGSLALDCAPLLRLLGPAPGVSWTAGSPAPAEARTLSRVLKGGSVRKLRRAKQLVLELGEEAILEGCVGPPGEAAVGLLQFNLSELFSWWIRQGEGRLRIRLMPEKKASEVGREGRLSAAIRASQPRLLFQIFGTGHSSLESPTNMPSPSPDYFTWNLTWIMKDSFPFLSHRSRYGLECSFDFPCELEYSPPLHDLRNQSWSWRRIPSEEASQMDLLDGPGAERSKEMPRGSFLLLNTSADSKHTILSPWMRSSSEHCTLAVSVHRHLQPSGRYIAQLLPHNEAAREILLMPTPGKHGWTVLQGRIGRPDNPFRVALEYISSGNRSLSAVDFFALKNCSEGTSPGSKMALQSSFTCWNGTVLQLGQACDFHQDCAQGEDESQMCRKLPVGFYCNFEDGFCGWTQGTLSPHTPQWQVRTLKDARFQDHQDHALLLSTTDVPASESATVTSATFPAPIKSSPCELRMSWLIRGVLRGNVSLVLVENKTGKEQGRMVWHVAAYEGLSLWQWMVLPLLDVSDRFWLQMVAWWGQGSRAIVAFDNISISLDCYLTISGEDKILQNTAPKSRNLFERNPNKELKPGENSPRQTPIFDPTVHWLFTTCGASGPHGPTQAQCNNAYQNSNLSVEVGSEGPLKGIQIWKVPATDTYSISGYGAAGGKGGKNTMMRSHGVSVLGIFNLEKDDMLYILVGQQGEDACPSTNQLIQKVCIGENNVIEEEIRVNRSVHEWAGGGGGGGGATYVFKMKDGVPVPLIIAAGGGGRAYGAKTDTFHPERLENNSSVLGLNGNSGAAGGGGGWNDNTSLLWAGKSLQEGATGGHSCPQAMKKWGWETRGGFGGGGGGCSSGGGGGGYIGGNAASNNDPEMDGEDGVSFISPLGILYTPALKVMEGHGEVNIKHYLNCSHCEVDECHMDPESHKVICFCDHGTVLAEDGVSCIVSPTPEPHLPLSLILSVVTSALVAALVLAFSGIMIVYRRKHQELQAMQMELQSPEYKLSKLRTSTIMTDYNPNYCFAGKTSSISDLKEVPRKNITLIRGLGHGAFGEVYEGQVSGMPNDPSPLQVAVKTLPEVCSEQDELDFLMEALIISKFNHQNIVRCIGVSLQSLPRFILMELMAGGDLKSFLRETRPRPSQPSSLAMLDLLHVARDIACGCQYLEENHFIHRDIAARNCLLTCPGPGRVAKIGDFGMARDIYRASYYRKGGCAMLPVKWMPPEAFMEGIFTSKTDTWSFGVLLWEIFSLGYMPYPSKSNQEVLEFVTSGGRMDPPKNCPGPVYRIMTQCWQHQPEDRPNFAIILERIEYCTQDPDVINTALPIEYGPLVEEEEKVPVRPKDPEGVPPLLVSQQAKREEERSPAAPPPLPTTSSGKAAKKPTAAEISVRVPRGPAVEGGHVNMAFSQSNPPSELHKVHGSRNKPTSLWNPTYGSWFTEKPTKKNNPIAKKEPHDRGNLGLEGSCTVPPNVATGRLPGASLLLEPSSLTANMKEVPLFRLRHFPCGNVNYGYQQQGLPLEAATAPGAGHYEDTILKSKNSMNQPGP

Structure (SMILES) | IC50 (A549) [nM] | IC50 (NCI-H2228) [nM] | IC50 (KARPAS-299) [nM] | IC50 [1] [nM] | IC50 [2] [nM]
CNC(=O)c1ccccc1Nc1nc(Nc2ccc(-n3cccc3C(=O)O)cc2OC)ncc1Cl | 2490 | 87 | 170 |  | 
COc1cc(-n2cccc2C(=O)O)ccc1Nc1ncc(Cl)c(Nc2ccccc2NS(C)(=O)=O)n1 | 1060 | 64 | 72 |  | 
Cc1cc(Nc2ncc(Cl)c(Nc3ccccc3S(=O)(=O)C(C)C)n2)c(OC(C)C)cc1C1CCNCC1 [CERITINIB] |  | 1070 |  |  | 
CNC(=O)c1ccccc1Nc1nc(Nc2ccc(-n3cccc3C(=O)N3CCCCC3)cc2OC)ncc1Cl | > 10000 | 990 | 1610 |  | 
CNC(=O)c1ccccc1Nc1nc(Nc2ccc(-n3cccc3C(=O)N3CCSCC3)cc2OC)ncc1Cl | 2180 | 1040 | 1140 |  | 
CNC(=O)c1ccccc1Nc1nc(Nc2ccc(-n3cccc3C(=O)N3CCC(O)CC3)cc2OC)ncc1Cl | > 10000 | 1070 | 970 |  | 
COc1cc(-n2cccc2C(=O)N2CC(O)C2)ccc1Nc1ncc(Cl)c(Nc2ccccc2NS(C)(=O)=O)n1 | 2080 | 44 | 81 |  | 
CNC(=O)c1ccccc1Nc1nc(Nc2ccc(-n3cccc3C(=O)N(C)C)cc2OC)ncc1Cl | 4120 | 89 | 1070 |  | 
COc1cc(-n2cccc2C(=O)N2CCC(O)CC2)ccc1Nc1ncc(Cl)c(Nc2ccccc2NS(C)(=O)=O)n1 | > 10000 | 660 | 970 |  | 
COc1cc(-n2cccc2C(=O)N2CCCC2)ccc1Nc1ncc(Cl)c(Nc2ccccc2NS(C)(=O)=O)n1 | 4580 | 600 | 870 |  | 
COc1cc(-n2cccc2C(=O)N2CCSCC2)ccc1Nc1ncc(Cl)c(Nc2ccccc2NS(C)(=O)=O)n1 | 1470 | 700 | 930 | 4.5 | 8.3
CNC(=O)c1ccccc1Nc1nc(Nc2ccc(-n3cccc3C(=O)N3CCCC3)cc2OC)ncc1Cl | > 10000 | 770 | 840 |  | 
CNC(=O)c1ccccc1Nc1nc(Nc2ccc(-n3cccc3C(=O)N3CCC(C)CC3)cc2OC)ncc1Cl | > 10000 | 1070 | 2310 |  | 
CNC(=O)c1ccccc1Nc1nc(Nc2ccc(-n3cccc3C(=O)N3CCN(C)CC3)cc2OC)ncc1Cl | > 10000 | 980 | 90 |  | 

Next, values leading:

IC50 (A549) [nM] | IC50 (NCI-H2228) [nM] | IC50 (KARPAS-299) [nM] | IC50 [1] [nM] | IC50 [2] [nM] | Structure (SMILES)
970 | 87 | 105 |  |  | CCN(CC)C(=O)c1cccn1-c1ccc(Nc2ncc(Cl)c(Nc3ccccc3NS(C)(=O)=O)n2)c(OC)c1
> 10000 | 1050 | 970 |  |  | COc1cc(-n2cccc2C(=O)N2CCN(C)CC2)ccc1Nc1ncc(Cl)c(Nc2ccccc2NS(C)(=O)=O)n1
> 10000 | 1410 | 430 |  |  | CNC(=O)c1ccccc1Nc1nc(Nc2ccc(-n3cccc3C(=O)N3CCN(CCO)CC3)cc2OC)ncc1Cl
2210 | 840 | 1030 |  |  | CNC(=O)c1ccccc1Nc1nc(Nc2ccc(-n3cccc3C(=O)N3CCOCC3)cc2OC)ncc1Cl
> 10000 | 43 | 790 | 9.6 | 13.4 | CNC(=O)c1ccccc1Nc1nc(Nc2ccc(-n3cccc3C(=O)NCCO)cc2OC)ncc1Cl
4130 | 44 | 740 |  |  | CNC(=O)c1ccccc1Nc1nc(Nc2ccc(-n3cccc3C(=O)N3CC(O)C3)cc2OC)ncc1Cl
1570 | 1270 | 940 |  |  | CCN1CCN(C(=O)c2cccn2-c2ccc(Nc3ncc(Cl)c(Nc4ccccc4C(=O)NC)n3)c(OC)c2)CC1
> 10000 | 1080 | 1250 |  |  | COc1cc(-n2cccc2C(=O)N2CCN(CCO)CC2)ccc1Nc1ncc(Cl)c(Nc2ccccc2NS(C)(=O)=O)n1
> 10000 | 630 | 1040 |  |  | COc1cc(-n2cccc2C(=O)N2CCCCC2)ccc1Nc1ncc(Cl)c(Nc2ccccc2NS(C)(=O)=O)n1
2510 | 950 | 790 |  |  | COC(=O)c1cccn1-c1ccc(Nc2ncc(Cl)c(Nc3ccccc3NS(C)(=O)=O)n2)c(OC)c1
8510 | 970 | 890 |  |  | CNC(=O)c1ccccc1Nc1nc(Nc2ccc(-n3cccc3C(=O)OC)cc2OC)ncc1Cl
3490 | 540 | 270 |  |  | CCN(CC)C(=O)c1cccn1-c1ccc(Nc2ncc(Cl)c(Nc3ccccc3C(=O)NC)n2)c(OC)c1
> 10000 | 54 | 78 |  |  | COc1cc(-n2cccc2C(=O)N(C)C)ccc1Nc1ncc(Cl)c(Nc2ccccc2NS(C)(=O)=O)n1
> 10000 | 1130 | 1410 | 8.5 | 11.7 | CCN1CCN(C(=O)c2cccn2-c2ccc(Nc3ncc(Cl)c(Nc4ccccc4NS(C)(=O)=O)n3)c(OC)c2)CC1
2200 | 1050 | 1370 |  |  | COc1cc(-n2cccc2C(=O)N2CCC(C)CC2)ccc1Nc1ncc(Cl)c(Nc2ccccc2NS(C)(=O)=O)n1
1770 | 610 | 640 |  |  | COc1cc(-n2cccc2C(=O)N2CCOCC2)ccc1Nc1ncc(Cl)c(Nc2ccccc2NS(C)(=O)=O)n1
> 10000 | 34 | 45 | 1.9 | 3.1 | COc1cc(-n2cccc2C(=O)NCCO)ccc1Nc1ncc(Cl)c(Nc2ccccc2NS(C)(=O)=O)n1
